These results are taken from patent US4568666A, “Carboxylalkyl peptide derivatives” (G. D. Searle & Co., priority 1984, dated 1986).

The target of the assay is T1, Human Rheumatoid Synovial Collagenase (Homo sapiens, UniProt P03956).
T1 construct: from tissue
T1 sequence (P03956 100-469): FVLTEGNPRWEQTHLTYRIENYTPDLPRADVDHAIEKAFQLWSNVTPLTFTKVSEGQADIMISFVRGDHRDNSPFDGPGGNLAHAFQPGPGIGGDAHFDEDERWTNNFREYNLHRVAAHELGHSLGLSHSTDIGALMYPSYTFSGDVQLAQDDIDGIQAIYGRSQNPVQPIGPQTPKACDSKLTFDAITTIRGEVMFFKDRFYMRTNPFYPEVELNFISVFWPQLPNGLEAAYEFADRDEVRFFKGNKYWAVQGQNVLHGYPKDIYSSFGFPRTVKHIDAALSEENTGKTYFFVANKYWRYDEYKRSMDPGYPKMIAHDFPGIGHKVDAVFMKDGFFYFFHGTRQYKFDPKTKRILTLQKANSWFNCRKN
The assay can be described thus: Collagenase inhibition (procedure of Cawston and Barrett, acetyl 14C collagen). Type of assay: biochemical. Conditions: 37° C., 16 hours, native acetyl 14C collagen, Tris HCl-CaCl2 pH 7.6. As to the method: This was determined following the procedure of Cawston and Barrett, Anal. Biochem., 99, 340-345 (1979) whereby the 1 mM of the inhibitor being tested or dilutions thereof are incubated at 37° C. for 16 hours with native collagen and collagenase (buffered with Tris HCl--CaCl2; pH 7.6). The collagen is acetyl ^14 C collagen. The samples are centrifuged to sediment undigested collagen and an aliquot of the radiactive supernatant removed for assay on a scintillation counter as a measure of hydrolysis. The collagenase activity in the presence of 1 mM inhibitor, or a dilution thereof, is compared to activity in a control devoid of inhibitor and the results reported as that inhibitor concentration effecting 50% inhibition of the collagenase.

The compound `CNC(=O)[C@H](Cc1ccc(OCc2ccccc2)cc1)NC(=O)[C@H](CC(C)C)N[C@H](CCNC(=O)OCc1ccccc1)C(=O)O` [Example 32, N-[3-N-(Benzyloxycarbonyl)amino-1-(R)-carboxypropyl]-L-leucyl-O-benzyl-L-tyrosine N-Methylamide] displayed an IC50 of 0.91 µM.
`CNC(=O)[C@H](Cc1ccc(O)cc1)NC(=O)[C@H](CC(C)C)N[C@H](CCNC(=O)OCc1ccccc1)C(=O)O` [Example 25, N-[3-N-(Benzyloxycarbonyl)amino-1-(R)-carboxypropyl]-L-leucyl-L-tyrosine N -Methylamide] came in with an IC50 of 1.2 µM.
The result for `CNC(=O)[C@H](Cc1ccc(OC(C)C)cc1)NC(=O)[C@H](CC(C)C)N[C@H](CCNC(=O)OCc1ccccc1)C(=O)O` [Example 27, N-[3-N-(Benzyloxycarboxyl)amino-1-(R)-carbonypropyl]-L-leucyl-O-isopropyl-L-tyrosine N-methylamide] reads 2.1 µM.
The result for `CNC(=O)[C@H](Cc1ccc(O)cc1)NC(=O)[C@H](CC(C)C)N[C@H](CCNC(=O)c1ccccc1)C(=O)O` [Example 15, N-[3-N-(Benzoyl)amino-1-(R)-carboxy-propyl]-L-leucyl-L-tyrosine N-Methylamide] reads 3.1 µM; that for `CC(C)C[C@H](N[C@H](CCNC(=O)OCc1ccccc1)C(=O)O)C(=O)NCCc1ccccc1` [Example 19, N-[3-N-(Benzyloxycarbonyl)amino-1-(R)-carboxypropyl]-L-leucine N-Phenethylamide], 51 µM.
On to `CNC(=O)[C@H](Cc1ccc(OC)cc1)NC(=O)[C@H](CC(C)C)N[C@H](CCNC(=O)OCc1ccc([N+](=O)[O-])cc1)C(=O)O` [Example 14, N-[3-N-(p-Nitrobenzyloxycarbonyl)amino-1-(R)-carboxypropyl]-L-leucyl-O-methyl-L-tyrosine N-Methylamide], for which it took 1.2 µM to reach half-maximal inhibition (IC50).
To `CNC(=O)[C@H](Cc1ccc(OC(C)(C)C)cc1)NC(=O)[C@H](CC(C)C)N[C@H](CCNC(=O)OCc1ccccc1)C(=O)O` [Example 28] belongs 3.6 µM; to `CNC(=O)[C@H](Cc1ccc(OC)cc1)NC(=O)[C@H](CC(C)C)N[C@H](CCN)C(=O)O` [Example 13, N-[3-Amino-1-(R)-carboxypropyl]-L-leucyl-O-methyl-L-tryosine N-Methylamide], 91 µM; to “N-[3-(N'-Benzyl)carbamoyl-1-(R)-carboxypropyl]-L-leucyl-O-methyl-L-tyrosineN-Methylamide [Example 18]”, 1.3 µM.
`CNC(=O)[C@H](Cc1ccc(OC)cc1)NC(=O)[C@H](CC(C)C)N[C@H](CCCCNC(=O)OCc1ccccc1)C(=O)O` [Example 21, N-[5-N-(Benzyloxycarbonyl)amino-1-(R)-carboxypentyl]-L-leucyl-O-methyl-L-tyrosine N-Methylamide] registered an IC50 of 11 µM.
`CNC(=O)[C@H](Cc1ccc(OC2CCCC2)cc1)NC(=O)[C@H](CC(C)C)N[C@H](CCNC(=O)OCc1ccccc1)C(=O)O` [Example 33, N-[3-N-(Benzyloxycarbonyl)amino-1-(R)-carboxypropyl]-L-leucyl-O-cyclopentyl-L-tyrosine N-Methylamide] displayed an IC50 of 0.74 µM.
The result for `CNC(=O)[C@H](Cc1ccc(OCCC(C)C)cc1)NC(=O)[C@H](CC(C)C)N[C@H](CCNC(=O)OCc1ccccc1)C(=O)O` [Example 30, N[3-N-(Benzyloxycarbonyl)amino-1-(R)-carboxypropyl]-L-leucyl-O-3(methyl)butyl-L-tyrosine N-methyl amide] reads 1.1 µM.
The compound `CCCOc1ccc(C[C@H](NC(=O)[C@H](CC(C)C)N[C@H](CCNC(=O)OCc2ccccc2)C(=O)O)C(=O)NC)cc1` [Example 26, N-(3-N-(Benzyloxycarbonyl)amino-1-(R)-carboxypropyl)-L-leucyl-O-propyl-L-tyrosine N-methyl amide] came in with an IC50 of 0.74 µM.
To `CNC(=O)[C@H](Cc1ccc(OC)cc1)NC(=O)[C@H](CC(C)C)N[C@H](CCSC)C(=O)O` [Example 7, N[1-(R)-Carboxy-3-methylthiopropyl]-L-leucyl-O-methyl-L-tyrosine N-methylamide] belongs 5.5 µM.
Take `CCCCNC(=O)COc1ccc(C[C@H](NC(=O)[C@H](CC(C)C)N[C@H](CCNC(=O)OCc2ccccc2)C(=O)O)C(=O)NC)cc1` [Example 34, N-[3-N-(Benzyloxycarbonyl)amino-1-(R)-carboxypropyl]-L-leucyl-O-(2-aminobutyl-2-oxo)ethyl-L-tyrosine N-Methylamide]: it took 2.6 µM to reach half-maximal inhibition (IC50).
The result for `CC(C)C[C@H](N[C@H](C)C(=O)O)C(=O)NCCc1ccccc1` [Example 6, N[1-(R)-Carboxyethyl]-L-Leucine N-Phenethylamide] reads 42 µM; that for `CNC(=O)[C@H](Cc1ccc(OCc2ccccc2)cc1)NC(=O)[C@H](CC(C)C)N[C@H](C)C(=O)O` [Example 5, N[1-(R)-Carboxyethyl]-L-leucyl-O-benzyl-L-tyrosine N-Methylamide], 1.7 µM.
`CNC(=O)[C@H](Cc1ccc(OC)cc1)NC(=O)[C@H](CC(C)C)N[C@H](CCCCNC(=O)[C@@H]1CCCN1C(C)=O)C(=O)O` [Example 22, N-[5-N-[N-Acetyl-L-prolyl]amino-1-(R)-carboxypentyl]-L-leucyl-O-methyl-L-tyrosine N-Methylamide]: 42 µM corresponded to half-maximal inhibition (IC50).
To `CCCCNC(=O)[C@H](C)NC(=O)[C@H](CCCC)N[C@H](C)C(=O)O` [Example 24, N-(1-(R)-Carboxyethyl)-S-norleucyl-S-alanine. N-Butylamide] belongs 19 µM.
Consider `CNC(=O)[C@H](Cc1ccc(OC)cc1)NC(=O)[C@H](CC(C)C)N[C@H](CCCNC(=O)OCc1ccccc1)C(=O)O` [Example 9, N-[4-N-(Benzyloxycarbonyl)amino-1-(R)-carboxybutyl]-L-leucyl-O-methyl-L-tyrosine N-Methylamide], for which the IC50 worked out at 9.5 µM.
On to `CNC(=O)[C@H](Cc1ccc(OC)cc1)NC(=O)[C@H](CC(C)C)N[C@H](CCNC(=O)c1ccc([N+](=O)[O-])cc1)C(=O)O` [Example 16, N-[3-N-(P-Nitrobenzoyl)amino-1-(R)-carboxypropyl]-L-leucyl-O-methyl-L-tyrosine. N-Methylamide], for which it took 4.9 µM to reach half-maximal inhibition (IC50).
To `COc1ccc(C[C@H](NC(=O)[C@H](CC(C)C)N[C@H](CCNC(=O)OCc2ccccc2)C(=O)O)C(=O)NCCc2ccccc2)cc1` [Example 36, N-[3-N-(Benzyloxycarbonyl)amino-1-(R)-carboxypropyl]-L-leucyl-O-methyl-L-tyrosine N-Phenethylamide] belongs 1 µM.
In turn, `CCCCCOc1ccc(C[C@H](NC(=O)[C@H](CC(C)C)N[C@H](CCNC(=O)OCc2ccccc2)C(=O)O)C(=O)NC)cc1` [Example 29, N-[3-N-(Benzyloxycarbonyl)amino-1-(R)-carboxypropyl]-L-leucyl-O-pentyl-L-tyrosine N-Methylamide] came in with an IC50 of 0.54 µM. This IC50 lies about 1.9-fold lower than the previous one.
The result for `CNC(=O)[C@H](Cc1ccc(OCCCCCC(C)C)cc1)NC(=O)[C@H](CC(C)C)N[C@H](CCNC(=O)OCc1ccccc1)C(=O)O` [Example 31, N-[3-N-(Benzyloxycarbonyl)amino-1-(R)-carboxypropyl]-L-leucyl-O-6(methyl)heptyl-L-tyrosine N-methyl amide] reads 2.5 µM.
The result for “N-[3-N-(Benzyloxycarbonyl)amino-1-(R)-carboxypropyl]-L-leucyl-O-(2'-carboxyethyl-L-leucyl N-Methylamide)-L-tyrosine N-Methylamide [Example 35]” reads 2.4 µM.
